Experimental data from patent US20260053932A1, “COMPOUNDS AND METHODS FOR THE TARGETED DEGRADATION OF ANDROGEN RECEPTOR AND ASSOCIATED METHODS OF USE” (Arvinas Operations, Inc., priority 2020, published 2026).

system: androgen receptor (AR) in LNCaP and/or VCaP cells; test: Androgen Receptor ELISA assay (AR degradation); assay type: cell-based; settings: LNCaP and/or VCaP cells; 5 hours incubation; media with R1881; read-out: DC50 Code* (degradation of AR ELISA)
Protocol: Androgen Receptor ELISA Assay. […] The protocols used with VCaP cells are described below.
The cells were grown for a minimum of 3 days.
(2)(i) A 10× stock plate in media was made; (ii) 2.5 μL of the 1000× stock was transferred to a new 10× stock plate (use 12 channel pipet, start at A (DMSO control) work thru H. When 247.5 µL of media was added to this plate, it served as a 10× stock; (iii) made media+1 nM R1881 for making 10× stock plate; (iv) added 247.5 μL of media with 1 nM R1881 to each well of the 10× stock plate, mix.
Then 22 μL of 10× stock was added to cells and incubated for 5 hours. […] Media was aspirated, and 100 μL 1× cell lysis buffer/well was added. The cells were placed on a shaker located in a cold room for 10 minutes and shaken at speed 7. The lysate mixture was mix and 20 μL transferred to 100 μl of Diluent in ELISA plate (0.15 μg/ml-[…]). The lysate-diluent mixture was store at 4° C. overnight on a shaker located in a cold room at speed 5 (gentle swirl).
The lysate-diluent mixture was shaken for 30 minutes at 37° C. The mouse AR antibody, anti-mouse antibody, TMB, and STOP solution were allowed to come to room temperature. The 1×ELISA buffer included in kit was made and loaded in reservoir. Media from the plate was discarded, the ELISA plate was tapped hard on paper towel, and washed 4×200 μl ELISA wash buffer using a plate washer for the first three washes and an eight channel aspirator for the fourth wash to more thoroughly aspirate the solution.
Next, 100 μL/well of mouse AR detection Ab was added; the plate was covered and shaken at 37° C. for 1 hour; media was discarded from the plates, the plates tapped on a paper towel and washed four times with 200 μL ELISA wash buffer with a plate washer for the first three washes and an eight channel aspirator for the fourth wash; 100 μL/well of anti-mouse—HRP conjugated Ab (comes with the kit) was added; the plates was cover and shaken at 37° C. for 30 minutes; the TMB reagent was allowed to come to room temperature; the media from the plate was discarded, the plates tapped on paper towel, and washed four times with 200 μL ELISA wash buffer with a plate washer for the first three washes and an eight channel aspirator for the fourth wash; plates were tapped on paper towel; 100 μL TMB was added to each well and the plate shaken for 2 minutes—while watching color. STOP solution (100 μL) was added when light blue color developed.
Data was analyzed and plotted using GraphPad Prism software. Exemplary compounds of Tables 1A, 1B, and 1C were assayed and the data shown below in Tables 2A, 2B, and 2C. DC50 (nM) categories (degradation of AR ELISA in LNCaP and/or VCaP cells) of Tables 2A, 2B, and 2C are as follows: A<1 nM; 1≤B<10 nM; 10≤C<100 nM; D≥100 nM. Dmax (%) categories (degradation of AR ELISA in LNCaP and/or VCaP cells) of Table 2 are as follows: A≥70; 50≤B<70; C<50

Compared with `COc1cc(O[C@H]2C[C@H](N(CC3CCN(c4ncc(C(=O)NC5CC6(C5)CC(Oc5cc(C)c(C#N)c(C)c5)C6)cn4)CC3)C(C)C)C2)cc2c1C(=O)N(C1CCC(=O)NC1=O)C2=O` (some centres unmarked) [Compound 1, N-(6-(4-cyano-3,5-dimethylphenoxy)spiro [3.3]heptan-2-yl)-2-(4-((((1r,3r)-3-((2-(2,6-dioxopiperidin-3-yl)-7-methoxy-1,3-dioxoisoindolin-5-yl)oxy)cyclobutyl) (isopropyl)amino)methyl)piperidin-1-yl)pyrimidine-5-carboxamide], `CC(C)N(CC1CCN(c2cnc(C(=O)N[C@H]3CC[C@H](Oc4ccc(C#N)c(Cl)c4)CC3)cn2)CC1)[C@H]1C[C@H](Oc2c(F)cc3c(c2F)C(=O)N(C2CCC(=O)NC2=O)C3=O)C1` (some centres unmarked) [Compound 45, N-((1r,4r)-4-(3-chloro-4-cyanophenoxy)cyclohexyl)-5-(4-((((1r,3r)-3-((2-(2,6-dioxopiperidin-3-yl)-4,6-difluoro-1,3-dioxoisoindolin-5-yl)oxy)cyclobutyl) (isopropyl)amino)methyl)piperidin-1-yl)pyrazine-2-carboxamide] is lower in DC50: 1 to 10 nM for the first, less than 1 nM for the second.

`CC(C)N(CC1CCN(c2ccc(C(=O)N[C@H]3CC[C@H](Oc4ccc(C#N)c(Cl)c4)CC3)nn2)CC1)[C@H]1CC[C@H](Oc2ccc3c(c2)C(=O)N(C2CCC(=O)NC2=O)C3=O)CC1` (some centres unmarked) [Compound 47, N-((1r,4r)-4-(3-chloro-4-cyanophenoxy)cyclohexyl)-6-(4-((((1r,4r)-4-((2-(2,6-dioxopiperidin-3-yl)-1,3-dioxoisoindolin-5-yl)oxy)cyclohexyl) (isopropyl)amino)methyl)piperidin-1-yl)pyridazine-3-carboxamide] and `COc1cc(O[C@H]2CC[C@H](NC(=O)c3cnc(N4CCC(CN(C(C)=O)[C@H]5C[C@H](Oc6ccc7c(c6)C(=O)N(C6CCC(=O)NC6=O)C7=O)C5)CC4)cn3)CC2)ccc1C#N` (some centres unmarked) [Compound 29, N-((1r,4r)-4-(4-cyano-3-methoxyphenoxy)cyclohexyl)-5-(4-((N-((1r,3r)-3-((2-(2,6-dioxopiperidin-3-yl)-1,3-dioxoisoindolin-5-yl)oxy)cyclobutyl)acetamido)methyl)piperidin-1-yl)pyrazine-2-carboxamide] cannot be ordered by DC50: less than 1 nM for the first, less than 1 nM for the second.

`N#Cc1ccc(O[C@H]2CC[C@H](NC(=O)c3ccc(N4CCC(CN5CCN(c6ccc7c(c6)C(=O)N(C6(F)CCC(=O)NC6=O)C7=O)CC5)CC4)nn3)CC2)cc1Cl` (mixture of isomers) [Compound 18, rac-N-((1r,4r)-4-(3-chloro-4-cyanophenoxy)cyclohexyl)-6-(4-((4-(2-(3-fluoro-2,6-dioxopiperidin-3-yl)-1,3-dioxoisoindolin-5-yl)piperazin-1-yl)methyl)piperidin-1-yl)pyridazine-3-carboxamide] and `CC(C)N(CC1CCN(c2ncc(C(=O)N[C@H]3C(C)(C)[C@H](Oc4ccc(C#N)c(Cl)c4)C3(C)C)cn2)CC1)[C@H]1CC[C@H](Oc2ccc3c(c2)C(=O)N(C2CCC(=O)NC2=O)C3=O)CC1` (some centres unmarked) [Compound 26, N-((1r,3r)-3-(3-chloro-4-cyanophenoxy)-2,2,4,4-tetramethylcyclobutyl)-2-(4-((((1r,4r)-4-((2-(2,6-dioxopiperidin-3-yl)-1,3-dioxoisoindolin-5-yl)oxy)cyclohexyl) (isopropyl)amino)methyl)piperidin-1-yl)pyrimidine-5-carboxamide] cannot be ordered by DC50: less than 1 nM for the first, less than 1 nM for the second.

same assay, conditions: degradation of AR ELISA in LNCaP and/or VCaP cells; Table 2C; read-out: DC50 Code*

`Cc1cc(O[C@H]2C(C)(C)[C@H](NC(=O)c3cnc(N4CCC(CN(C(C)C)[C@H]5C[C@H](Oc6cccc7c6C(=O)N(C6CCC(=O)NC6=O)C7=O)C5)CC4)nc3)C2(C)C)cc(C)c1C#N` (some centres unmarked) [compound 88, N-((1r,3r)-3-(4-cyano-3,5-dimethylphenoxy)-2,2,4,4-tetramethylcyclobutyl)-2-(4-((((1r,3r)-3-((2-(2,6-dioxopiperidin-3-yl)-1,3-dioxoisoindolin-4-yl)oxy)cyclobutyl) (isopropyl)amino)methyl)piperidin-1-yl)pyrimidine-5-carboxamide] and `CC(C)N(CC1CCN(c2ncc(C(=O)N[C@H]3C(C)(C)[C@H](Oc4ccc(C#N)c(C#N)c4)C3(C)C)cn2)CC1)[C@H]1C[C@H](Oc2ccc3c(c2)C(=O)N(C2CCC(=O)NC2=O)C3=O)C1` (some centres unmarked) [compound 108, N-((1r,3r)-3-(3,4-dicyanophenoxy)-2,2,4,4-tetramethylcyclobutyl)-2-(4-((((1r,3r)-3-((2-(2,6-dioxopiperidin-3-yl)-1,3-dioxoisoindolin-5-yl)oxy)cyclobutyl) (isopropyl)amino)methyl)piperidin-1-yl)pyrimidine-5-carboxamide] cannot be ordered by DC50: less than 1 nM for the first, less than 1 nM for the second.

`Cc1cc(O[C@H]2C(C)(C)[C@H](NC(=O)c3ccc(N4CCC(CN(CCN5CCOCC5)[C@H]5C[C@H](Oc6ccc7c(c6)C(=O)N(C6CCC(=O)NC6=O)C7=O)C5)CC4)cc3)C2(C)C)cc(C)c1C#N` (mixture of isomers) [compound 188, rac-N-((1r,3r)-3-(4-cyano-3,5-dimethylphenoxy)-2,2,4,4-tetramethylcyclobutyl)-4-(4-((((1r,3r)-3-((2-(2,6-dioxopiperidin-3-yl)-1,3-dioxoisoindolin-5-yl)oxy)cyclobutyl)(2-morpholinoethyl)amino)methyl)piperidin-1-yl)benzamide] and `Cc1cc(O[C@H]2C(C)(C)[C@H](NC(=O)c3ccc(N4CCC(CN(C)[C@H]5CC[C@@H](Oc6ccc7c(c6)C(=O)N(C6CCC(=O)NC6=O)C7=O)C5)CC4)cc3)C2(C)C)cc(C)c1C#N` (stereo partly drawn) [compound 152, N-((1r,3S)-3-(4-cyano-3,5-dimethylphenoxy)-2,2,4,4-tetramethylcyclobutyl)-4-(4-((((1S,3R)-3-((2-(2,6-dioxopiperidin-3-yl)-1,3-dioxoisoindolin-5-yl)oxy)cyclopentyl) (methyl)amino)methyl)piperidin-1-yl)benzamide] cannot be ordered by DC50: less than 1 nM for the first, less than 1 nM for the second.

`Cc1cc(O[C@H]2C(C)(C)[C@H](NC(=O)c3ccc(N4CCC5(CC4)CN([C@H]4C[C@H](Oc6ccc7c(c6)C(=O)N(C6CCC(=O)NC6=O)C7=O)C4)CCO5)cc3)C2(C)C)cc(C)c1C#N` (mixture of isomers) [compound 228, rac-N-((1r,3r)-3-(4-cyano-3,5-dimethylphenoxy)-2,2,4,4-tetramethylcyclobutyl)-4-(4-((1r,3r)-3-((2-(2,6-dioxopiperidin-3-yl)-1,3-dioxoisoindolin-5-yl)oxy)cyclobutyl)-1-oxa-4,9-diazaspiro[5.5]undecan-9-yl)benzamide] and `Cc1cc(O[C@H]2C(C)(C)[C@H](NC(=O)c3ccc(N4CCC(CN5CCOC[C@H]5COc5ccc6c(c5)C(=O)N(C5CCC(=O)NC5=O)C6=O)CC4)cc3)C2(C)C)cc(C)c1C#N` (stereo partly drawn) [compound 221, N-((1r,3S)-3-(4-cyano-3,5-dimethylphenoxy)-2,2,4,4-tetramethylcyclobutyl)-4-(4-(((3S)-3-(((2-(2,6-dioxopiperidin-3-yl)-1,3-dioxoisoindolin-5-yl)oxy)methyl)morpholino)methyl)piperidin-1-yl)benzamide] cannot be ordered by DC50: less than 1 nM for the first, less than 1 nM for the second.

First: COc1cc(O[C@H]2C(C)(C)[C@H](NC(=O)c3cnc(N4CC(CN(C(C)C)[C@H]5C[C@H](Oc6ccc7c(c6)C(=O)N(C6CCC(=O)NC6=O)C7=O)C5)C4)cn3)C2(C)C)ccc1C#N (some centres unmarked) [compound 130, N-((1r,3r)-3-(4-cyano-3-methoxyphenoxy)-2,2,4,4-tetramethylcyclobutyl)-5-(3-((((1r,3r)-3-((2-(2,6-dioxopiperidin-3-yl)-1,3-dioxoisoindolin-5-yl)oxy)cyclobutyl) (isopropyl)amino)methyl)azetidin-1-yl)pyrazine-2-carboxamide]
Second: CCc1c(O[C@H]2C[C@H](N(CC3CCN(c4cnc(C(=O)N[C@H]5C(C)(C)[C@H](Oc6ccc(C#N)c(Cl)c6)C5(C)C)cn4)CC3)C(C)C)C2)ccc2c1CN(C1CCC(=O)NC1=O)C2=O (some centres unmarked) [compound 120, N-((1r,3r)-3-(3-chloro-4-cyanophenoxy)-2,2,4,4-tetramethylcyclobutyl)-5-(4-((((1r,3r)-3-((2-(2,6-dioxopiperidin-3-yl)-4-ethyl-1-oxoisoindolin-5-yl)oxy)cyclobutyl) (isopropyl)amino)methyl)piperidin-1-yl)pyrazine-2-carboxamide]
The DC50 of the first is higher: 1 to 10 nM for the first, less than 1 nM for the second.
